Laboratory results: article PMC9468151, “Identification of a binding site on soluble RANKL that can be targeted to inhibit soluble RANK-RANKL interactions and treat osteoporosis” (Nature Communications, 2022)
Several values for one entry are separate records, joined by “and”; a condition that tells them apart may be missing. Identical values can stand only once.

How the values were obtained:
OVX rats = test: Osteoporosis biomarkers determination in rat serum (ELISA); assay type: in vivo; design: OCN / RANKL / PINP / CTX-I / Glu-OCN: unit not given here; details: for CTX-I / Glu-OCN / OCN / PINP / RANKL: serum, OVX + compound, individual animals
Experimental: Change of rat osteoporosis biomarkers after treating with S3-15 were determined by enzyme-linked immunosorbent assay (ELISA). […] serum biomarkers including CTX-I (C-terminal telopeptide of type I collagen), OC(Osteocalcin), PINP (Procollagen I N-Terminal propeptide), and RANKL(Receptor activator of nuclear factor-κB ligand). Rat blood was collected from aortaventralis after anesthesia, and centrifuged in 14000 × g at 4 °C to get the serum samples. The protein contents of those biomarkers in serum samples were detected according to manufacturer’s instruction (CTX-I and OC, Systems IDS, UK; RANKL, R&D Systems, USA; PINP, USCN Life Science, Inc., China.).

[1] = system: RANKL-induced resorption pits; test: Hydroxyapatite resorption assay; assay type: cell-based, mouse; details: for bone resorption / RANKL-induced resorption pits: in words
Experimental: BMMs (1 × 10^5 cells/well) were cultured onto 6-well collagen-coated plates and stimulated with 100 ng/mL sRANKL and 10 ng/mL M-CSF for 3 days to generate early stage of osteoclasts began differentiation. Then early-stage osteoclasts were gently harvested using cell dissociation solution, and seeded into OsteoAssay Surface (hydroxyapatite-coated) 24-well plates. Early-stage osteoclasts were continue incubated in a medium containing sRANKL and M-CSF with or without treatment. After 48 h, wells were bleached to remove cells, followed by image acquisition for the measurement of resorbed areas using a Leica microscope. The percentage of surface resorbed was analyzed using ImageJ software.

C3H10T1/2 = C3H10T1/2 proliferation and osteoblastic mineralization; assay type: cell-based, mouse; details: C3H10T1/2 or human primary osteoblasts, osteogenic differentiation medium
Experimental: Supplementary Fig.5. In Vitro Activity Evaluation and Signal Pathway Study of compound S3-15. a Western blot of PI3K and AKT phosphorylation in RAW264.7 cells treating with or without S315 and sRANKL at different point-in-time. b EC50 curve and representative OC microphotographs of mature osteoclasts apoptosis assay with S3-15. n=3 biological replicates for each concentration. EC50 values were calculated by GraphPad Prism 8 software. c EC50 curve and representative OC microphotographs of mature osteoclasts apoptosis assay with S3, S3-03 and S3-05. n=3 biological replicates for each concentration. EC50 values were calculated by GraphPad Prism […]
pits in dose-dependent manner (mouse BMMs). e Precursor osteoblasts C3H10T12 proliferation-promoting of S3, S3-05 and S3-15. f Osteoblastic mineralization after treatment with S3, S3-05 and S3-15. C3H10T12 cells were cultured in osteoblast induction differentiation medium with or without treatment for 14 days and determinate of calcium deposition in differentiated osteoblasts by Alizarin red staining. Error bars represent ± s.d. n=3. Statistical difference was determined by unpaired two-tailed Student’s t test. Significant difference p value is < 0.05. Scale […]
(1 picture or pasted object on this page, not shown here)

sRANKL = biological target: T1, sRANKL (Rattus norvegicus, UniProt Q9ESE2, D175N); test: Surface plasmon resonance (SPR) assay; assay type: binding; details: immobilized sRANKL, 25 °C
T1 construct: (1) sRANKL (rat 159-318 aa); His6-sumo (N, cleaved yes); made in house; host or cells: Escherichia coli BL21 (DE3)
T1 sequence (Q9ESE2 159-318 D175N): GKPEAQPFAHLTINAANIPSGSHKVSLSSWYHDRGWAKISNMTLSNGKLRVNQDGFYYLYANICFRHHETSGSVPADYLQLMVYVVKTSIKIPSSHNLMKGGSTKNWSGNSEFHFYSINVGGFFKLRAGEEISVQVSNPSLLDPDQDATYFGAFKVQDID
Experimental: A ProteOn XPR36TM SPR instrument (BioRad Hercules, CA) was used for carrying out SPR assays. sRANKL protein in PBS buffer, pH 7.4, was diluted to 20 nM in 10 mM sodium acetate buffer, pH 5.5 and immobilized in parallelflow channels of a the EDAC/Sulfo-NHS activated surface of a GLH biosensor chip (Bio-Rad) with an amine coupling kit (Bio-Rad). The surface was blocked with 1 M ethanolamine. The final immobilization level for sRANKL was approximately 14,000 RU. A blank immobilization channel in the same GLH biosensor chip was also activated with EDAC/Sulfo-NHS and blocked with 1 M ethanolamine to use as a reference.
Biosensor binding experiments were conducted in filtered and degassed running buffer (PBS containing 0.005% Tween-20, pH 7.4) at 25 °C. Compounds was dissolved in 100% DMSO in appropriate different series concentrations of stock solutions. Before detecting, compounds were diluted in six or five concentrations with running buffer and ensured that the content of DMSO contained in each detected concentration was consistent. Compounds in different concentrations were injected simultaneously at a flow rate at […] for 180 s and 120 s for the association phase, followed by 180 s for the disassociation. Following the compound injection, the chip surface was regenerated with 40 s pulses of 0.85% H3PO4 and running buffer.
ProtedOn Manager 2.0. was used for data analysis. Each set of sensorgrams was globally analyzed using the 1:1 Langmuir binding model to obtain the kinetic rate constants (Kon and Koff). Global kinetic rate constants (ka and kd) were derived for each reaction, and the equilibrium dissociation constant, KD, was calculated using the equation KD = kd/ka.

[2] = OVX rats + S3-15, individual animals

Structure (SMILES) | CTX-I (OVX rats) | Glu-OCN (OVX rats) | OCN (OVX rats) | PINP (OVX rats) | RANKL (OVX rats) | bone resorption / RANKL-induced resorption pits [1] | cell proliferation and mineralization (C3H10T1/2) | Kd (sRANKL) [µM] | CTX-I, serum (OVX rats; [2]) | Glu-OCN, serum (OVX rats; [2]) | OCN, serum (OVX rats; [2]) | PINP, serum (OVX rats; [2]) | RANKL, serum (OVX rats; [2]) | resorption pits area quantification (fig. 6g) ([1]; S3-15 0.1 μM, vehicle 95, 90, 94) | resorption pits area quantification (fig. 6g) ([1]; S3-15 1 μM) | resorption pits area quantification (fig. 6g) ([1]; S3-15 10 μM)
CCOC(=O)c1sc(NC(=O)/C(=N/Nc2ccccc2C(=O)O)C(C)=O)nc1C [S3, (E)-2-(2-(1-((5-(ethoxycarbonyl)-4-methylthiazol-2-yl)amino)-1,3-dioxobutan-2-ylidene) hydrazinyl) benzoic acid] | 21.3236 and 22.8572 and 16.6793 and 10.172 and 21.7818 and 24.1752 and 24.2142 and 25.7828 | 19.4432 and 20.3365 and 14.3331 and 16.8798 and 23.559 and 26.5413 and 32.3597 and 27.0763 | 79.4709 and 101.933 and 71.1854 and 74.676 and 124.633 and 154.593 and 174.247 and 198.288 | 3388.13 and 10860 and 11369.2 and 5541.99 and 4144.03 and 7092.56 and 5050.08 and 5955.78 | 139.364 and 152.091 and 195.727 and 181.182 and 193.909 and 213.909 and 163 and 128.454 | suppresses RANKL-induced resorption | increase cell proliferation and mineralization | 34.8 | – | – | – | – | – | – | – | –
CCOC(=O)c1sc(NC(=O)/C(=N/Nc2ccc(O)cc2C(=O)O)C(C)=O)nc1C [S3-05] | 12.9391 and 9.961 and 23.5145 and 16.5322 and 12.0463 and 14.1264 and 13.0825 and 21.4762 | 23.1879 and 10.5179 and 18.8663 and 21.4957 and 14.7477 and 20.9157 and 18.2902 and 26.5413 | 109.522 and 50.9168 and 121.686 and 154.593 and 50.4316 and 135.849 and 58.7802 and 162.173 | 4703.95 and 10142.4 and 4202.52 and 5828.23 and 7980.56 and 6497.2 and 3099 and 3185.01 | 183 and 172.091 and 217.546 and 201.182 and 228.454 and 173.909 and 175.727 and 170.273 | suppresses RANKL-induced resorption | increase cell proliferation and mineralization | 23.6 | – | – | – | – | – | – | – | –
CC(=O)/C(=N\Nc1ccccc1C(=O)O)C(=O)Nc1ccccn1 [S3-15] | – | – | – | – | – | attenuated bone resorption in a dose-dependent manner | increase cell proliferation and mineralization | 33.7 | 19.469 pg/mL and 18.8316 pg/mL and 14.1264 pg/mL and 18.682 pg/mL and 15.0327 pg/mL and 20.1095 pg/mL and 19.8831 pg/mL and 22.3952 pg/mL and 19.2437 pg/mL | 17.0885 pg/mL and 18.9711 pg/mL and 13.9189 pg/mL and 19.8634 pg/mL and 15.7343 pg/mL and 15.8903 pg/mL and 20.547 pg/mL and 20.6523 pg/mL and 22.4466 pg/mL | 88.7207 pg/mL and 63.1562 pg/mL and 56.8431 pg/mL and 170.125 pg/mL and 130.12 pg/mL and 70.5071 pg/mL and 180.184 pg/mL and 178.468 pg/mL and 148.784 pg/mL | 11904.5 pg/mL and 9058.6 pg/mL and 6938.35 pg/mL and 7805.25 pg/mL and 15755.4 pg/mL and 15266.7 pg/mL and 4261.9 pg/mL and 14338.4 pg/mL and 6837.57 pg/mL | 197.546 pg/mL and 226.636 pg/mL and 184.818 pg/mL and 228.454 pg/mL and 215.727 pg/mL and 223 pg/mL and 210.273 pg/mL | 80 and 85 and 76 | 57 and 64 and 65 | 34 and 29 and 27
